We go through nine compounds from BindingDB's records for doi:10.1038/nchembio.1865 (University of British Columbia, 2015).

Broadly, the Ki is the dissociation constant of the complex between target and ligand, obtained from inhibition or displacement. Low values mean a stronger hold on the target, high ones a looser hold on the target.

SMILES strings stand for the structures.

This experiment has as its target T1, Pancreatic alpha-amylase (Homo sapiens, UniProt P04746).
T1 sequence (P04746 whole entry): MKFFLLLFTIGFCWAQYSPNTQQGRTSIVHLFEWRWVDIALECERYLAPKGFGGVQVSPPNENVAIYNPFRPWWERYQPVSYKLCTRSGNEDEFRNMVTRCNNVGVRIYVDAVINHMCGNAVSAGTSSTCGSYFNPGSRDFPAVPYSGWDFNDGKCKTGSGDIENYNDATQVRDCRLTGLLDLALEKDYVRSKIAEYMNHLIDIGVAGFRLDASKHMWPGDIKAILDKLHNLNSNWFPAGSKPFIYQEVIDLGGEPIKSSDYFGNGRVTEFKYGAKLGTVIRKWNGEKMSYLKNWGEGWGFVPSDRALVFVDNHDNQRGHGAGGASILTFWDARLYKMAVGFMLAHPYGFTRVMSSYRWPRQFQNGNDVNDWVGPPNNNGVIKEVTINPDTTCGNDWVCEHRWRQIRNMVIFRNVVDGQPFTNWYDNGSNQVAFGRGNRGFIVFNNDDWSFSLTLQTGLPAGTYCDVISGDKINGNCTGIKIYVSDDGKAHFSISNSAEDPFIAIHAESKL
The experiment is described as follows: Kinetic Studies. The settings on record: 30 °C. Here is the method: 2-Chloro-4-nitrophenyl α-d-maltotrioside (CNP-G3) was used as the substrate in a similar range of concentrations. Initial reaction rates for the release of chloronitrophenolate were measured and the further progress of substrate cleavage monitored continuously. Reactions were performed on a Varian Cary 4000 UV/Vis spectrophotometer at 400 nm and 30 °C.
`C[C@@H]1O[C@@H](Oc2c(-c3cc(O)c(O)c(O)c3)oc3cc(O)cc(O)c3c2=O)[C@H](O[C@@H]2O[C@H](COC(=O)/C=C/c3ccc(O)c(O)c3)[C@@H](O)[C@H](O)[C@H]2O[C@@H]2O[C@H](CO)[C@@H](O)[C@H](O)[C@H]2O)[C@H](O)[C@H]1O` [MbA-RX (3)]: the Ki was 42.4 nM. For `C[C@@H]1O[C@@H](Oc2c(-c3cc(O)c(O[C@@H]4OC[C@@H](O)[C@H](O)[C@H]4O)c(O)c3)oc3cc(O)cc(O)c3c2=O)[C@H](O[C@@H]2O[C@H](COC(=O)/C=C/c3ccc(O)c(O)c3)[C@@H](O)[C@H](O)[C@H]2O)[C@H](O)[C@H]1O` [MbA-GR (4)] the value was 79.3 nM; for `C[C@@H]1O[C@@H](Oc2c(-c3cc(O)c(O)c(O)c3)oc3cc(O)cc(O)c3c2=O)[C@H](O[C@@H]2O[C@H](COC(=O)/C=C/c3ccc(O)c(O)c3)[C@@H](O)[C@H](O)[C@H]2O)[C@H](O)[C@H]1O` [mini-MbA], 93.3 nM.

Take `C[C@@H]1O[C@@H](Oc2c(-c3cc(O)c(O[C@@H]4OC[C@@H](O)[C@H](O)[C@H]4O)c(O)c3)oc3cc(O)cc(O)c3c2=O)[C@H](O[C@@H]2O[C@H](CO)[C@@H](O)[C@H](O)[C@H]2O)[C@H](O)[C@H]1O` [MbA-CGR (9)]: the affinity, expressed as Ki, was 128000 nM. The same measure for `C[C@@H]1O[C@@H](Oc2c(-c3cc(O)c(O[C@@H]4OC[C@@H](O)[C@H](O)[C@H]4O)c(O)c3)oc3cc(O)cc(O)c3c2=O)[C@H](O[C@@H]2O[C@H](CO)[C@@H](O)[C@H](O)[C@H]2O[C@@H]2O[C@H](CO)[C@@H](O)[C@H](O)[C@H]2O)[C@H](O)[C@H]1O` [MbA-CR (8)]: 46800 nM. In the case of `C[C@@H]1O[C@@H](O[C@@H]2CO[C@@H](Oc3c(O)cc(-c4oc5cc(O)cc(O)c5c(=O)c4O[C@@H]4O[C@@H](C)[C@H](O)[C@@H](O)[C@H]4O[C@@H]4O[C@H](CO)[C@@H](O)[C@H](O)[C@H]4O[C@@H]4O[C@H](CO)[C@@H](O)[C@H](O)[C@H]4O)cc3O)[C@H](O)[C@H]2O)[C@H](O)[C@H](O)[C@H]1O` [MbA-C (6)], the inhibition constant Ki was 730 nM. For `C[C@@H]1O[C@@H](O[C@@H]2CO[C@@H](Oc3c(O)cc(-c4oc5cc(O)cc(O)c5c(=O)c4O[C@@H]4O[C@@H](C)[C@H](O)[C@@H](O)[C@H]4O[C@@H]4O[C@H](COC(=O)/C=C/c5ccc(O)c(O)c5)[C@@H](O)[C@H](O)[C@H]4O)cc3O)[C@H](O)[C@H]2O)[C@H](O)[C@H](O)[C@H]1O` [MbA-G (1)] the value was 9.1 nM. `O=C(/C=C/c1ccc(O)c(O)c1)NCc1cn(CCCCCCOc2c(-c3ccc(O)c(O)c3)oc3cc(O)cc(O)c3c2=O)nn1` [mini-MbA analog inhibitor 10] registered a Ki of 13900 nM. The same measure for `C[C@@H]1O[C@@H](O[C@@H]2CO[C@@H](Oc3c(O)cc(-c4oc5cc(O)cc(O)c5c(=O)c4O[C@@H]4O[C@@H](C)[C@H](O)[C@@H](O)[C@H]4O[C@@H]4O[C@H](CO)[C@@H](O)[C@H](O)[C@H]4O)cc3O)[C@H](O)[C@H]2O)[C@H](O)[C@H](O)[C@H]1O` [MbA-CG (7)]: 2240 nM.
